# Measurements from ChEMBL document CHEMBL3751764, “Synthesis and in vitro antiproliferative activity of novel pyrazolo[3,4-d]pyrimidine derivatives” (Medchemcomm, 2015).
# What was measured:
# Type in all cases: functional
# [1] = Cytotoxicity against human Caki1 cells assessed as cell growth at 10 uM after 72 hrs by SRB assay relative to control; details: CAKI-1, 72 h, read-out: Activity
# [2] = Cytotoxicity against human RXF393 cells assessed as cell growth at 10 uM after 72 hrs by SRB assay relative to control; details: RXF 393, 72 h, read-out: Activity
# MCF7 = assay: Cytotoxicity against human MCF7 cells assessed as cell growth at 10 uM after 72 hrs by SRB assay relative to control; details: MCF7, 72 h, read-out: Activity
# [3] = Cytotoxicity against human UACC257 cells assessed as cell growth at 10 uM after 72 hrs by SRB assay relative to control; details: UACC-257, 72 h, read-out: Activity
# [4] = Cytotoxicity against human TK10 cells assessed as cell growth at 10 uM after 72 hrs by SRB assay relative to control; details: TK-10, 72 h, read-out: Activity
# U-251 = assay: Cytotoxicity against human U251 cells assessed as cell growth at 10 uM after 72 hrs by SRB assay relative to control; details: U-251, 72 h, read-out: Activity
# Malme-3M = assay: Cytotoxicity against human MALME-3M cells assessed as cell growth at 10 uM after 72 hrs by SRB assay relative to control; details: read-out: Activity
# A549 = assay: Cytotoxicity against human A549 cells assessed as cell growth at 10 uM after 72 hrs by SRB assay relative to control; details: A549, 72 h, read-out: Activity
# MDA-MB-468 = assay: Cytotoxicity against human MDA-MB-468 cells assessed as cell growth at 10 uM after 72 hrs by SRB assay relative to control; details: MDA-MB-468, 72 h, read-out: Activity
# [5] = Cytotoxicity against human HCC2998 cells assessed as cell growth at 10 uM after 72 hrs by SRB assay relative to control; details: HCC 2998, 72 h, read-out: Activity
# SN12C = assay: Cytotoxicity against human SN12C cells assessed as cell growth at 10 uM after 72 hrs by SRB assay relative to control; details: read-out: Activity
# [6] = Cytotoxicity against human HCT116 cells assessed as cell growth at 10 uM after 72 hrs by SRB assay relative to control; details: HCT-116, 72 h, read-out: Activity
# [7] = Cytotoxicity against human SF295 cells assessed as cell growth at 10 uM after 72 hrs by SRB assay relative to control; details: SF-295, 72 h, read-out: Activity
# MDA-MB-231 [8] = assay: Cytotoxicity against human MDA-MB-231 cells assessed as cell growth at 10 uM after 72 hrs by SRB assay relative to control; details: MDA-MB-231, 72 h, read-out: Activity
# NCI-H23 = assay: Cytotoxicity against human NCI-H23 cells assessed as cell growth at 10 uM after 72 hrs by SRB assay relative to control; details: NCI-H23, 72 h, read-out: Activity
# NCI-H460 = assay: Cytotoxicity against human NCI-H460 cells assessed as cell growth at 10 uM after 72 hrs by SRB assay relative to control; details: NCI-H460, 72 h, read-out: Activity
# CCRF-CEM = assay: Cytotoxicity against human CCRF-CEM cells assessed as cell growth at 10 uM after 72 hrs by SRB assay relative to control; details: read-out: Activity
# 786-0 = assay: Cytotoxicity against human 786-0 cells assessed as cell growth at 10 uM after 72 hrs by SRB assay relative to control; details: 786-0, 72 h, read-out: Activity
# A498 = assay: Cytotoxicity against human A498 cells assessed as cell growth at 10 uM after 72 hrs by SRB assay relative to control; details: A498, 72 h, read-out: Activity
# MDA-MB-435 = assay: Cytotoxicity against human MDA-MB-435 cells assessed as cell growth at 10 uM after 72 hrs by SRB assay relative to control; details: MDA-MB-435, 72 h, read-out: Activity
# [9] = Cytotoxicity against human UACC62 cells assessed as cell growth at 10 uM after 72 hrs by SRB assay relative to control; details: UACC-62, 72 h, read-out: Activity
# SR = assay: Cytotoxicity against human SR cells assessed as cell growth at 10 uM after 72 hrs by SRB assay relative to control; details: read-out: Activity
# [10] = Cytotoxicity against human TK10 cells after 72 hrs by SRB assay; details: TK-10, 72 h
# [11] = Cytotoxicity against human COLO205 cells after 72 hrs by SRB assay; details: COLO 205, 72 h
# [12] = Cytotoxicity against human MOLT4 cells after 72 hrs by SRB assay; details: MOLT-4, 72 h
# MDA-MB-231 [13] = assay: Cytotoxicity against human MDA-MB-231 cells after 72 hrs by SRB assay; details: MDA-MB-231, 72 h
# [14] = Cytotoxicity against human SF268 cells after 72 hrs by SRB assay; details: SF-268, 72 h
# [15] = Cytotoxicity against human SF295 cells after 72 hrs by SRB assay; details: SF-295, 72 h
# [16] = Cytotoxicity against human HCT15 cells after 72 hrs by SRB assay; details: HCT-15, 72 h
# [17] = Cytotoxicity against human SW620 cells after 72 hrs by SRB assay; details: SW-620, 72 h
# [18] = Cytotoxicity against human UO31 cells after 72 hrs by SRB assay; details: UO-31, 72 h
# M14 = assay: Cytotoxicity against human M14 cells after 72 hrs by SRB assay; details: M14, 72 h
# [19] = Cytotoxicity against human BT549 cells after 72 hrs by SRB assay; details: BT-549, 72 h
# [20] = Cytotoxicity against human SKOV3 cells after 72 hrs by SRB assay; details: SK-OV-3, 72 h
# ACHN = assay: Cytotoxicity against human ACHN cells after 72 hrs by SRB assay
# [21] = Cytotoxicity against human OVCAR8 cells after 72 hrs by SRB assay; details: OVCAR-8, 72 h
# [22] = read-out: LC50 (the source's name)
smiles,measurement,setting,value
Cc1ccc2nc(Nc3ncnc4c3cnn4-c3ccccc3)sc2c1,growth at 10 µM,[1],103%
same,growth at 10 µM,[2],99%
same,growth at 10 µM,MCF7,97.2%
same,growth at 10 µM,[3],112%
same,growth at 10 µM,[4],118%
same,growth at 10 µM,U-251,103%
same,growth at 10 µM,Malme-3M,87%
same,growth at 10 µM,A549,102%
same,growth at 10 µM,MDA-MB-468,80.3%
same,growth at 10 µM,[5],106%
same,growth at 10 µM,SN12C,97.5%
same,growth at 10 µM,[6],99.4%
same,growth at 10 µM,[7],99.8%
same,growth at 10 µM,MDA-MB-231 [8],102%
same,growth at 10 µM,NCI-H23,106%
same,growth at 10 µM,NCI-H460,98.4%
same,growth at 10 µM,CCRF-CEM,87.9%
same,growth at 10 µM,786-0,103%
same,growth at 10 µM,A498,66.4%
same,growth at 10 µM,MDA-MB-435,91.9%
same,growth at 10 µM,[9],94.7%
same,growth at 10 µM,SR,44.8%
Clc1ccc(-n2ncc3c(Nc4ccc(OCc5ccccc5)cc4)ncnc32)cc1,growth at 10 µM,[1],93.7%
same,growth at 10 µM,[2],97.8%
same,growth at 10 µM,MCF7,95.9%
same,growth at 10 µM,[3],102%
same,growth at 10 µM,[4],92.1%
same,growth at 10 µM,U-251,95%
same,growth at 10 µM,Malme-3M,85.1%
same,growth at 10 µM,A549,88.8%
same,growth at 10 µM,MDA-MB-468,91.5%
same,growth at 10 µM,[5],98%
same,growth at 10 µM,[6],94.8%
same,growth at 10 µM,[7],97.8%
same,growth at 10 µM,NCI-H23,92.7%
same,growth at 10 µM,NCI-H460,93.1%
same,growth at 10 µM,CCRF-CEM,78.9%
same,growth at 10 µM,786-0,103%
same,growth at 10 µM,A498,85.2%
same,growth at 10 µM,MDA-MB-435,83.2%
same,growth at 10 µM,[9],105%
same,growth at 10 µM,SR,83.3%
c1ccc(COc2ccc(Nc3ncnc4c3cnn4-c3ccccc3)cc2)cc1,growth at 10 µM,[1],99.1%
same,growth at 10 µM,[2],102%
same,growth at 10 µM,MCF7,100%
same,growth at 10 µM,[3],121%
same,growth at 10 µM,[4],111%
same,growth at 10 µM,U-251,106%
same,growth at 10 µM,Malme-3M,92.8%
same,growth at 10 µM,A549,104%
same,growth at 10 µM,MDA-MB-468,93.1%
same,growth at 10 µM,[5],108%
same,growth at 10 µM,SN12C,97.4%
same,growth at 10 µM,[6],106%
same,growth at 10 µM,[7],107%
same,growth at 10 µM,MDA-MB-231 [8],101%
same,growth at 10 µM,NCI-H23,109%
same,growth at 10 µM,NCI-H460,93.7%
same,growth at 10 µM,CCRF-CEM,80.8%
same,growth at 10 µM,786-0,100%
same,growth at 10 µM,A498,77.9%
same,growth at 10 µM,MDA-MB-435,90.1%
same,growth at 10 µM,[9],93.3%
same,growth at 10 µM,SR,92%
O=c1sc2cc(Nc3ncnc4c3cnn4-c3ccccc3)ccc2n1Cc1ccc(Cl)cc1,growth at 10 µM,[1],71.6%
same,growth at 10 µM,[2],79.5%
same,growth at 10 µM,MCF7,85.3%
same,growth at 10 µM,[3],92.6%
same,growth at 10 µM,[4],105%
same,growth at 10 µM,U-251,96.6%
same,growth at 10 µM,Malme-3M,86.4%
same,growth at 10 µM,A549,78%
same,growth at 10 µM,MDA-MB-468,65.9%
same,growth at 10 µM,SN12C,75%
same,growth at 10 µM,[6],80.3%
same,growth at 10 µM,[7],87.2%
same,growth at 10 µM,MDA-MB-231 [8],57.7%
same,growth at 10 µM,NCI-H23,84.7%
same,growth at 10 µM,NCI-H460,83.5%
same,growth at 10 µM,CCRF-CEM,63.6%
same,growth at 10 µM,786-0,93.7%
same,growth at 10 µM,A498,59%
same,growth at 10 µM,MDA-MB-435,84.2%
same,growth at 10 µM,[9],58.3%
same,growth at 10 µM,SR,80.6%
O=C(NC1CCCCC1)c1ccc(Nc2ncnc3c2cnn3-c2ccccc2)cc1,growth at 10 µM,[1],62.3%
same,growth at 10 µM,[2],62.2%
same,growth at 10 µM,MCF7,82.8%
same,GI50,[10],16.5 µM
same,TGI,[10],49.5 µM
same,CC50,[10]; [22],> 100 µM
same,GI50,[11],12.5 µM
same,TGI,[11],> 100 µM
same,CC50,[11]; [22],> 100 µM
same,growth at 10 µM,[3],56.5%
same,GI50,[12],75.6 µM
same,TGI,[12],> 100 µM
same,CC50,[12]; [22],> 100 µM
same,growth at 10 µM,[4],51%
same,GI50,MDA-MB-231 [13],5.09 µM
same,TGI,MDA-MB-231 [13],21.9 µM
same,CC50,MDA-MB-231 [13]; [22],80.6 µM
same,growth at 10 µM,U-251,40.2%
same,GI50,[14],5.85 µM
same,TGI,[14],> 100 µM
same,CC50,[14]; [22],> 100 µM
same,GI50,[15],2.98 µM
same,TGI,[15],13.3 µM
same,CC50,[15]; [22],43.1 µM
same,growth at 10 µM,Malme-3M,2.93%
same,GI50,[16],99.3 µM
same,TGI,[16],> 100 µM
same,CC50,[16]; [22],> 100 µM
same,GI50,[17],> 100 µM
same,TGI,[17],> 100 µM
same,CC50,[17]; [22],> 100 µM
same,growth at 10 µM,A549,16.6%
same,growth at 10 µM,MDA-MB-468,76.1%
same,GI50,[18],23.9 µM
same,TGI,[18],> 100 µM
same,CC50,[18]; [22],> 100 µM
same,growth at 10 µM,SN12C,19%
same,growth at 10 µM,[6],37.6%
same,growth at 10 µM,[7],73.4%
same,GI50,M14,18.3 µM
same,TGI,M14,> 100 µM
same,CC50,M14; [22],> 100 µM
same,GI50,[19],5.69 µM
same,TGI,[19],26.4 µM
same,CC50,[19]; [22],91.9 µM
same,growth at 10 µM,MDA-MB-231 [8],8.76%
same,growth at 10 µM,NCI-H23,72%
same,GI50,[20],2.95 µM
same,TGI,[20],8.7 µM
same,CC50,[20]; [22],51.1 µM
same,growth at 10 µM,NCI-H460,42.2%
same,growth at 10 µM,CCRF-CEM,64.9%
same,GI50,ACHN,3.32 µM
same,TGI,ACHN,11 µM
same,CC50,ACHN; [22],37 µM
same,growth at 10 µM,786-0,72.1%
same,growth at 10 µM,A498,50.4%
same,growth at 10 µM,MDA-MB-435,81.2%
same,growth at 10 µM,[9],63.9%
same,GI50,[21],3.87 µM
same,TGI,[21],19.3 µM
same,CC50,[21]; [22],> 100 µM
same,growth at 10 µM,SR,67.5%
